This note sets out measurements from US20250163104A1, “MACROCYCLIC IMMUNOMODULATORS” (priority 2021, published 2025).

*1 amine or outer side, *2 acyl side, *3 side chain or, on linkers, in order; H or OH if unused. Where a SMILES comes first, the peptide text is derived from it. Bridges are numbered along the chain shown (N, C = ends). [ ]: non-standard residue; d: D form. The star is where a group is joined. Phe(4-COOH) = N[C@@H](Cc1ccc(C(=O)O)cc1)C(=O)O; Bip = N[C@@H](Cc1ccc(-c2ccccc2)cc1)C(=O)O; Phe(3-Me) = Cc1cccc(C[C@H](N)C(=O)O)c1; βAsp = O=C(O)[C@H](CC(=O)[*:2])N[*:1]; Phe(2-F) = N[C@@H](Cc1ccccc1F)C(=O)O; Val(3-OH) = CC(C)(O)[C@H](N)C(=O)O; 4Pal = N[C@@H](Cc1ccncc1)C(=O)O; Cha = N[C@@H](CC1CCCCC1)C(=O)O; Cit = NC(=O)NCCC[C@H](N)C(=O)O; dCha = N[C@H](CC1CCCCC1)C(=O)O; Tle = CC(C)(C)[C@H](N)C(=O)O; hSer = N[C@@H](CCO)C(=O)O; Carboxymethyl = O=C(O)C*; Nle = CCCC[C@H](N)C(=O)O; Orn = NCCC[C@H](N)C(=O)O; Pra = C#CC[C@H](N)C(=O)O; Dab = NCC[C@H](N)C(=O)O; Dap = NC[C@H](N)C(=O)O; NHCH2CH2OMe = COCCN*

The assay deals with T1, human PD-1 / PD-L1-Ig binding on Jurkat cell line over-expressing human PD-1 (Jurkat-PD-1) (Homo sapiens, UniProt Q15116).
T1 construct: expressed in transfected cells; host or cells: Jurkat
T1 sequence (Q15116 25-288): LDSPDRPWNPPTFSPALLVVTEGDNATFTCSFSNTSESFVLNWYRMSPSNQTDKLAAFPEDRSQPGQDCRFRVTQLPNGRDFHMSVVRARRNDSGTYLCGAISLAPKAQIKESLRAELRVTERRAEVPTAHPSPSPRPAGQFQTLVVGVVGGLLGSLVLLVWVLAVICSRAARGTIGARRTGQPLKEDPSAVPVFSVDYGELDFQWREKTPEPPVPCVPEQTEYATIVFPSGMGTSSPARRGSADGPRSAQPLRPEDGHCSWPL
Nature of the assay: Jurkat-PD-1 Cell Binding High-Content Screening Assay (CBA). The following applies: Jurkat-PD-1 cells, PE-labeled PD-L1-Ig 20 nM final; read-out: Jurkat HPD1_PDL1 IC50. The format is cell-based. Summed up: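 Read-out: high-content imaging of PE-tagged PD-L1-Ig bound to Jurkat cells overexpressing human PD-1, after fixation with 4% paraformaldehyde and Hoechst 33342 nuclear staining. Ligand was used at 20 nM final for 1 hour, after a 2 h compound exposure at 37° C in serum-containing DMEM.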

In general, IC50 refers to the concentration at which inhibition is half-maximal. On to `CC(C)C[C@H]1NC(=O)[C@H](CCCN)NC(=O)[C@H](CCC(=O)O)NC(=O)[C@H](Cc2ccc(-c3ccccc3)cc2)NC(=O)[C@H](C(C)C)NC(=O)[C@H](Cc2ccccc2F)NC(=O)[C@H](CC(=O)O)NC(=O)[C@H](Cc2ccncc2)NC(=O)[C@H](Cc2ccc(OCC(=O)O)cc2)NC(=O)CSC[C@@H](C(=O)N[C@@H](C)C(N)=O)NC(=O)[C@H]([C@@H](C)O)NC(=O)[C@H](C(C)C)NC(=O)[C@H](CC2CCCCC2)NC(=O)[C@H](CCN)NC1=O` [Compound 2210] ({CH2CO}-Y(Carboxymethyl)[4Pal]D[Phe(2-F)]V[Bip]E[Orn][dL][Dab][Cha]VTCA-NH2; thioether N-14), for which the IC50 came out at 25.1 nM. `CC[C@H](C)[C@@H]1NC(=O)[C@H](Cc2ccc(-c3ccccc3)cc2)NC(=O)[C@H](C(C)C)NC(=O)[C@H](Cc2cccc(C)c2)NC(=O)[C@H](CC(=O)O)NC(=O)[C@H](Cc2ccncc2)NC(=O)[C@H](CN)NC(=O)CSC[C@@H](C(=O)N[C@@H](C)C(N)=O)NC(=O)[C@H]([C@@H](C)O)NC(=O)[C@H](C(C)C)NC(=O)[C@H](CC2CCCCC2)NC(=O)[C@H](CCN)NC(=O)[C@@H](CC(C)C)NC(=O)[C@H](CCCN)NC1=O` [Compound 1561]: the IC50 is 16.2 nM. In the case of `CC(C)[C@@H]1NC(=O)[C@H](Cc2c[nH]c3ccccc23)NC(=O)[C@H](CC(=O)O)NC(=O)[C@H](Cc2ccc(C(=O)O)cc2)NC(=O)[C@H](Cc2ccncc2)NC(=O)CSC[C@@H](C(=O)N[C@@H](C)C(N)=O)NC(=O)[C@H]([C@@H](C)O)NC(=O)[C@H](C(C)C)NC(=O)[C@H](CC2CCCCC2)NC(=O)[C@H](CCN)NC(=O)[C@@H](CC2CCCCC2)NC(=O)[C@H](CCCN)NC(=O)[C@H](C(C)C)NC(=O)[C@H](Cc2ccc(-c3ccccc3)cc2)NC1=O` [Compound 1632] ({CH2CO}-[4Pal][Phe(4-COOH)]DWV[Bip]V[Orn][dCha][Dab][Cha]VTCA-NH2; thioether N-14) it was 15.6 nM. In the case of `CC(C)C[C@@H]1NC(=O)[C@H](CCN)NC(=O)[C@@H](CC(C)C)NC(=O)[C@H](CCCN)NC(=O)[C@H](C(C)C)NC(=O)[C@H](Cc2ccc(-c3ccccc3)cc2)NC(=O)[C@H](C(C)C)NC(=O)[C@H](Cc2c[nH]c3ccccc23)NC(=O)[C@H](CC(N)=O)NC(=O)[C@H](Cc2ccc(O)cc2)NC(=O)[C@H](CC(N)=O)NC(=O)CSC[C@@H](C(=O)NCC(N)=O)NC(=O)[C@H]([C@@H](C)O)NC(=O)[C@H](C(C)C)NC1=O` [Compound 1084] ({CH2CO}-NYNWV[Bip]V[Orn][dL][Dab]LVTCG-NH2; thioether N-14), the IC50 was determined as 28.9 nM. As for `CCCC[C@@H]1NC(=O)[C@H](CCN)NC(=O)[C@@H](CC(C)C)NC(=O)[C@H](CCCN)NC(=O)[C@H]([C@@H](C)CC)NC(=O)[C@H](Cc2ccc(-c3ccccc3)cc2)NC(=O)[C@H](C(C)C)NC(=O)[C@H](Cc2cccc(C)c2)NC(=O)[C@H](CC(=O)O)NC(=O)[C@H](Cc2ccc(OCC(=O)O)cc2)NC(=O)[C@H](CN)NC(=O)CSC[C@@H](C(=O)N[C@@H](C)C(N)=O)NC(=O)[C@H]([C@@H](C)O)NC(=O)[C@H](C(C)C)NC1=O` [Compound 1209], the figure is 9.9 nM; as for `CC(C)C[C@H]1NC(=O)[C@H](CCCN)NC(=O)[C@H](C(C)C)NC(=O)[C@H](Cc2ccc(-c3ccccc3)cc2)NC(=O)[C@H](C(C)C)NC(=O)[C@H](Cc2c[nH]c3ccccc23)NC(=O)[C@H](CC(=O)O)NC(=O)[C@H](Cc2ccncc2)NC(=O)[C@H](Cc2ccc(OCC(=O)O)cc2)NC(=O)CSC[C@@H](C(=O)N[C@@H](C)C(N)=O)NC(=O)[C@H]([C@@H](C)O)NC(=O)[C@H](C(C)C)NC(=O)[C@H](CC2CCCCC2)NC(=O)[C@H](CCN)NC1=O` [Compound 1331], 6 nM; as for `CCCC[C@@H]1NC(=O)[C@H](Cc2c[nH]c3ccccc23)NC(=O)[C@H](CC(=O)O)NC(=O)[C@H](Cc2ccc(OCC(=O)O)cc2)NC(=O)[C@H](CN)NC(=O)CSC[C@@H](C(=O)N[C@@H](C)C(N)=O)NC(=O)[C@H]([C@@H](C)O)NC(=O)[C@H](C(C)C)NC(=O)[C@H](CC2CCCCC2)NC(=O)[C@H](CCN)NC(=O)[C@@H](CC(C)C)NC(=O)[C@H](CCCN)NC(=O)[C@H](CCC(=O)O)NC(=O)[C@H](Cc2ccc(-c3ccccc3)cc2)NC1=O` [Compound 1718] ({CH2CO}-[Dap]Y(Carboxymethyl)DW[Nle][Bip]E[Orn][dL][Dab][Cha]VTCA-NH2; thioether N-14), 24.2 nM. In the case of `CC(C)C[C@H]1NC(=O)[C@H](CCCN)NC(=O)[C@H](CCCNC(N)=O)NC(=O)[C@H](Cc2ccc(-c3ccccc3)cc2)NC(=O)[C@H](C(C)(C)C)NC(=O)[C@H](Cc2c[nH]c3ccccc23)NC(=O)[C@H](CC(=O)O)NC(=O)[C@H](Cc2ccc(OCC(=O)O)cc2)NC(=O)[C@H](CN)NC(=O)CSC[C@@H](C(=O)N[C@@H](C)C(N)=O)NC(=O)[C@H]([C@@H](C)O)NC(=O)[C@H](C(C)C)NC(=O)[C@H](CC2CCCCC2)NC(=O)[C@H](CCN)NC1=O` [Compound 1362] ({CH2CO}-[Dap]Y(Carboxymethyl)DW[Tle][Bip][Cit][Orn][dL][Dab][Cha]VTCA-NH2; thioether N-14) it was 52.9 nM. As for `CC(C)C[C@@H]1NC(=O)[C@H](CCN)NC(=O)[C@@H](CC(C)C)NC(=O)[C@H](CCCCN)NC(=O)[C@H](CCCNC(N)=O)NC(=O)[C@H](Cc2ccc(-c3ccccc3)cc2)NC(=O)[C@H](C(C)C)NC(=O)[C@H](Cc2c[nH]c3ccccc23)NC(=O)[C@H](CC(=O)O)NC(=O)[C@H](Cc2ccc(O)cc2)NC(=O)[C@H](CC(N)=O)NC(=O)CSC[C@@H](C(=O)N[C@@H](C)C(N)=O)NC(=O)[C@H](CO)NC(=O)[C@H](C(C)C)NC1=O` [Compound 1110] ({CH2CO}-NYDWV[Bip][Cit]K[dL][Dab]LVSCA-NH2; thioether N-14), the figure is 35.6 nM; as for `CC[C@H](C)[C@@H]1NC(=O)[C@H](Cc2ccc(-c3ccccc3)cc2)NC(=O)[C@H](C(C)C)NC(=O)[C@H](Cc2c[nH]c3ccccc23)NC(=O)[C@H](CC(=O)O)NC(=O)[C@H](Cc2ccc(O)cc2)NC(=O)[C@H](CC(N)=O)NC(=O)CSC[C@@H](C(=O)N[C@@H](C)C(N)=O)NC(=O)[C@H]([C@@H](C)O)NC(=O)[C@H](C(C)C)NC(=O)[C@H](CC(C)C)NC(=O)[C@H](CCCNC(=N)N)NC(=O)[C@@H](CC(C)C)NC(=O)[C@H](CCCN)NC1=O` [Compound 1143] ({CH2CO}-NYDWV[Bip]I[Orn][dL]RLVTCA-NH2; thioether N-14), 15.8 nM; as for `C#CC[C@H](NC(=O)C[C@H](NC(=O)[C@H](CCN)NC(=O)[C@@H]1CSCC(=O)N[C@@H](Cc2ccncc2)C(=O)N[C@@H](Cc2ccc(C(=O)O)cc2)C(=O)N[C@@H](CC(=O)O)C(=O)N[C@@H](Cc2c[nH]c3ccccc23)C(=O)N[C@@H](C(C)C)C(=O)N[C@@H](Cc2ccc(-c3ccccc3)cc2)C(=O)N[C@@H]([C@@H](C)CC)C(=O)N[C@@H](CCCN)C(=O)N[C@H](CC(C)C)C(=O)N[C@@H](CCN)C(=O)N[C@@H](CC(C)C)C(=O)N[C@@H](C(C)C)C(=O)N[C@@H]([C@@H](C)O)C(=O)N1)C(=O)O)C(=O)O` [Compound 1770] ({CH2CO}-[4Pal][Phe(4-COOH)]DWV[Bip]I[Orn][dL][Dab]LVTC[Dab][βAsp][Pra]-OH; thioether N-14), 68.9 nM. As to `CC(C)C[C@@H]1NC(=O)[C@H](Cc2c[nH]c3ccccc23)NC(=O)[C@H](CC(=O)O)NC(=O)[C@H](Cc2ccc(O)cc2)NC(=O)[C@H](Cc2ccccc2)NC(=O)CSC[C@@H](C(=O)N[C@@H](C)C(N)=O)NC(=O)[C@H]([C@@H](C)O)NC(=O)[C@H](C(C)C)NC(=O)[C@H](CC(C)C)NC(=O)[C@H](CC(N)=O)NC(=O)[C@@H](C)NC(=O)[C@H](CCCN)NC(=O)[C@H](C(C)C)NC(=O)[C@H](Cc2ccc(-c3ccccc3)cc2)NC1=O` [Compound 1092] ({CH2CO}-FYDWL[Bip]V[Orn][dA]NLVTCA-NH2; thioether N-14), the IC50 was 229 nM. In the case of `Cc1cccc(C[C@@H]2NC(=O)[C@H](CC(=O)O)NC(=O)[C@H](Cc3ccc(OCC(=O)O)cc3)NC(=O)[C@H](CN)NC(=O)CSC[C@@H](C(N)=O)NC(=O)[C@H]([C@@H](C)O)NC(=O)[C@H](C(C)C)NC(=O)[C@H](CC3CCCCC3)NC(=O)[C@H](CCN)NC(=O)[C@@H](CC(C)C)NC(=O)[C@H](CCCN)NC(=O)[C@H](Cc3ccc(OCC(=O)O)cc3)NC(=O)[C@H](Cc3ccc(-c4ccccc4)cc3)NC(=O)[C@H](Cc3ccc(OCC(=O)O)cc3)NC2=O)c1` [Compound 1783] ({CH2CO}-[Dap]Y(Carboxymethyl)D[Phe(3-Me)]Y(Carboxymethyl)[Bip]Y(Carboxymethyl)[Orn][dL][Dab][Cha]VTC-NH2; thioether N-14) it was 14.4 nM; in that of `CCCC[C@@H]1NC(=O)[C@H](CCN)NC(=O)[C@@H](CC(C)C)NC(=O)[C@H](CCCN)NC(=O)[C@H](C(C)C)NC(=O)[C@H](Cc2ccc(-c3ccccc3)cc2)NC(=O)[C@H](C(C)C)NC(=O)[C@H](Cc2cccc(C)c2)NC(=O)[C@H](CC(=O)O)NC(=O)[C@H](Cc2ccc(OCC(=O)O)cc2)NC(=O)[C@H](CN)NC(=O)CSC[C@@H](C(=O)N[C@@H](C)C(N)=O)NC(=O)[C@H]([C@@H](C)O)NC(=O)[C@H](C(C)C)NC1=O` [Compound 1211] ({CH2CO}-[Dap]Y(Carboxymethyl)D[Phe(3-Me)]V[Bip]V[Orn][dL][Dab][Nle]VTCA-NH2; thioether N-14), 8.9 nM. In the case of `COCCNC(=O)[C@H](CCN)NC(=O)[C@@H]1CSCC(=O)N[C@@H](CCOC)C(=O)N[C@@H](Cc2ccc(OCC(=O)O)cc2)C(=O)N[C@@H](CC(=O)O)C(=O)N[C@@H](Cc2cccc(C)c2)C(=O)N[C@@H](Cc2ccc(OCC(=O)O)cc2)C(=O)N[C@@H](Cc2ccc(-c3ccccc3)cc2)C(=O)N[C@@H](Cc2ccc(OCC(=O)O)cc2)C(=O)N[C@@H](CCCN)C(=O)N[C@H](CC(C)C)C(=O)N[C@@H](CCN)C(=O)N[C@@H](CC2CCCCC2)C(=O)N[C@@H](C(C)(C)O)C(=O)N[C@@H](CO)C(=O)N1` [Compound 2075] ({CH2CO}-[hSer](Me)Y(Carboxymethyl)D[Phe(3-Me)]Y(Carboxymethyl)[Bip]Y(Carboxymethyl)[Orn][dL][Dab][Cha][Val(3-OH)]SC[Dab]-NHCH2CH2OMe; thioether N-14), the IC50 amounted to 4.1 nM.
